As usually defined, the IC50 is the concentration that inhibits the measured activity by half. As a reminder, the melting point is the temperature, or range, at which the solid turns liquid.

The subject of data set [1] is MCF-7 (human breast cancer cell line). The experiment in a line: MTT anti-proliferative assay, MCF-7. Format: cell-based. The note with it: means ± SD, n = 3; for IC50: Homo sapiens, MCF7, 48 h incubation. The source says: (§1) The anti-proliferative activities against five human cancer cell lines, including HCT116 (human colorectal cancer cell line), MCF-7 (human breast cancer cell line), SW620 (human colorectal cancer cell line), BEL7402 (human hepatocellular carcinoma cell line), and HepG2 (human hepatocellular carcinoma cell line) were established for all the target compounds using the MTT assay.
(§2) The propidium iodide (PI) and Annexin V-FITC apoptosis detection kit were purchased from Invitrogen (Eugene, OR, United States). 3-(4,5-Dimethylthiazol-2-yl)-2,5-diphenyl-2H-tetrazolium bromide (MTT) was purchased from Sigma-Aldrich Co. (St. Louis, MO, United States). All human cell lines were used in this study, colorectal cancer cell HCT116, colorectal cancer cell SW620, breast cancer cell MCF-7, liver hepatocellular carcinoma cell BEL7402, liver hepatocellular carcinoma HepG2 and normal liver cell L02 were initially purchased from American Type Culture Collection (ATCC, Manassas, VA, United States). RPMI-1640 media, Dulbecco’s modified Eagle’s medium (DMEM), and foetal bovine serum (FBS) were provided from Gibco Company (Grand Island, NY, United States). Cell line MCF-7 and HepG2 were cultivated in DMEM containing 10% (v/v) heat-inactivated FBS, 100 units/ml penicillin and […] streptomycin (Grand Island, NY, United States). Cell lines HCT116, BEL7402, SW620, and L02 were cultivated in RPMI 1640 medium containing 10% (v/v) heat-inactivated FBS, 100 units/ml penicillin, and […] streptomycin. The cells were incubated at 37°C under a 5% CO2 and 90% relative humidity (RH) atmosphere.
(§3) Stock solutions were prepared by diluting target compounds in DMSO at concentrations (1.25, 2.5, 5, and 10 mM). The stock solution was then diluted (1.25, 2.5, 5, and 10 μM) with culture medium, and the concentration of DMSO was controlled not to exceed 0.1%.
(§4) Place the cells in a 96-well plate at an appropriate density to ensure exponential growth (1 × 10^4–1.2×10^4 cells per well) throughout the experiment, and then allow the cells to adhere for 24 h. The cells were then treated with continuous concentrations of each compound (1.25, 2.5, 5, and 10 μM) for 48 h. After 48 h of incubation, 15 μl of MTT solution was added to each well, and the final concentration was 2 mg/ml. Then incubate for another 4 h. After incubation, remove the MTT solution and add […] of DMSO to each well for staining. Shake vigorously for 10 min at room temperature to ensure complete dissolution. The optical density (OD) was read on a microplate reader (ELx 800, BioTek, Highland Park, Winooski, VT, United States) with a wavelength of 492 nm, and then the data was analyzed.
On the technique in general: Tetrazolium dyes change colour on reduction, which living cells bring about.

In data set [2] the test system is SW620 (human colorectal cancer cell line). The experiment in a line: MTT anti-proliferative assay, SW620. Format: cell-based. The note with it: means ± SD, n = 3; for IC50: Homo sapiens, SW-620, 48 h incubation.
Excerpt: as §1, §2, §3, §4

Data set [3] concerns HCT116 (human colorectal cancer cell line). The experiment in a line: MTT anti-proliferative assay, HCT116. Format: cell-based. The note with it: means ± SD, n = 3; for IC50: Homo sapiens, HCT-116, 48 h incubation.
Excerpt: as §1, §2, §3, §4

The subject of data set [4] is L02 (human normal liver cells). In words: Cytotoxicity against normal cell line L02. Format: cell-based.
Excerpt: The lack of selectivity between normal and cancer cells is one of the main limitations of antitumor drugs ([Dy and Adjei, 2013]). Therefore, we evaluated the cytotoxicity of compounds B2, and E in normal cell lines L02 (human normal liver cells) to determine the selectivity index (ratio of cytotoxicity in L02 cells compared to that in cancer cells). […] Therefore, this compound was chosen for further biological studies.
as §2, §3, §4

Data set [5] has as its system BEL7402 (human hepatocellular carcinoma cell line). In words: MTT anti-proliferative assay, BEL7402. It is filed as cell-based. The note with it: means ± SD, n = 3; for IC50: Homo sapiens, Bel-7402, 48 h incubation.
Excerpt: as §1, §2, §3, §4

The subject of data set [6] is HepG2 (human hepatocellular carcinoma cell line). The experiment in a line: MTT anti-proliferative assay, HepG2. Format: cell-based. The note with it: means ± SD, n = 3; for IC50: Homo sapiens, HepG2, 48 h incubation.
Excerpt: as §1, §2, §3, §4

In the case of `CC1(C)CC[C@]2(C(=O)OCc3nnc(-c4ccc(F)cc4)o3)[C@H](O)C[C@]3(C)C(=CC[C@@H]4[C@@]5(C)CC[C@H](O)[C@@](C)(C=O)[C@@H]5CC[C@]43C)[C@@H]2C1` [Compound B2, (5-(4-fluorophenyl)-1,3,4-oxadiazol-2-yl)methyl (4aR,5R,6aS,6bR,8aR,9S,10S,12aR,12bR,14bS)-9-formyl-5,10-dihydroxy-2,2,6a,6b,9,12a-hexamethyl-1,3,4,5,6,6a,6b,7,8,8a,9,10,11,12,12a,12b,13,14b-octadecahydropicene-4a (2H)-carboxylate], the melting point lay within 122 to 124 °C. This compound also registered a half-inhibitory concentration (IC50) in data set [1] of 3.99 ± 1.28 µM. The same compound gave an IC50 in data set [2] of 7.75 ± 1.43 µM. In addition, the IC50 in data set [3] was 3.12 ± 0.87 µM. In data set [4] (Homo sapiens, normal cell line L02), this compound gave an IC50 above 10 µM. For the same compound, the “Selectivity index BEL7402” value in data set [4] (IC50 on normal cells (L02)/IC50 on tumour cells (BEL7402)) was above 3.52. Further, the “Selectivity index HCT116” value in data set [4] (IC50 on normal cells (L02)/IC50 on tumour cells (HCT116)) is recorded as above 3.20. The “Selectivity index SW620” value in data set [4] (IC50 on normal cells (L02)/IC50 on tumour cells (SW620)) is on record as above 1.29. Besides, it took 2.84 ± 0.66 µM to reach half-maximal inhibition in data set [5] (IC50). In data set [6], this compound came in with an IC50 of 4.59 ± 1.73 µM.
Consider `CC1(C)CC[C@]2(C(=O)OCc3nnc(-c4ccc(Cl)cc4)o3)[C@H](O)C[C@]3(C)C(=CC[C@@H]4[C@@]5(C)CC[C@H](O)[C@@](C)(C=O)[C@@H]5CC[C@]43C)[C@@H]2C1` [Compound B3, (5-(4-chlorophenyl)-1,3,4-oxadiazol-2-yl)methyl (4aR,5R,6aS,6bR,8aR,9S,10S,12aR,12bR,14bS)-9-formyl-5,10-dihydroxy-2,2,6a,6b,9,12a-hexamethyl-1,3,4,5,6,6a,6b,7,8,8a,9,10,11,12,12a,12b,13,14b-octadecahydropicene-4a (2H)-carboxylate], for which the melting point was 132 to 134 °C. Moreover, the IC50 in data set [1] is above 10 µM. The compound also had an IC50 in data set [2] of 8.18 ± 1.85 µM. The compound also showed a concentration for half-maximal inhibition (IC50) in data set [3] of 5.01 ± 1.12 µM. For the same compound, the IC50 in data set [5] is above 10 µM. Moreover, the IC50 in data set [6] was above 10 µM.
`CC1(C)CC[C@]2(C(=O)OCc3cn(-c4ccc(Br)cc4)nn3)[C@H](O)C[C@]3(C)C(=CC[C@@H]4[C@@]5(C)CC[C@H](O)[C@@](C)(C=O)[C@@H]5CC[C@]43C)[C@@H]2C1` [Compound A5, (1-(4-bromophenyl)-1H-1,2,3-triazol-4-yl)methyl (4aR,5R,6aS,6bR,8aR,9S,10S,12aR,12bR,14bS)-9-formyl-5,10-dihydroxy-2,2,6a,6b,9,12a-hexamethyl-1,3,4,5,6,6a,6b,7,8,8a,9,10,11,12,12a,12b,13,14b-octadecahydropicene-4a (2H)-carboxylate] yielded a melting point of 190 to 192 °C. Moreover, the IC50 in data set [1] is above 10 µM. This compound displayed a concentration for half-maximal inhibition (IC50) in data set [2] above 10 µM. Moreover, the IC50 in data set [3] is above 10 µM. In data set [5], this compound yielded an IC50 above 10 µM. The compound further yielded an IC50 in data set [6] above 10 µM.
For the compound `CC1(C)CC[C@]2(C(=O)OCc3cc(-c4ccccc4)no3)[C@H](O)C[C@]3(C)C(=CC[C@@H]4[C@@]5(C)CC[C@H](O)[C@@](C)(C=O)[C@@H]5CC[C@]43C)[C@@H]2C1` [D, (3-phenylisoxazol-5-yl)methyl (4aR,5R,6aS,6bR,8aR,9S,10S,12aR,12bR,14bS)-9-formyl-5,10-dihydroxy-2,2,6a,6b,9,12a-hexamethyl-1,3,4,5,6,6a,6b,7,8,8a,9,10,11,12,12a,12b,13,14b-octadecahydropicene-4a (2H)-carboxylate], the melting point was in the range of 176 to 178 °C. Moreover, the “IC50 values MCF-7” value in data set [1] (48 h incubation) is “no strong activity”. In data set [1], the IC50 is above 10 µM. Further, the “IC50 values SW620” value in data set [2] (48 h incubation) is recorded as “no strong activity”. In addition, the IC50 in data set [2] is above 10 µM. In data set [3] (48 h incubation), the “IC50 values HCT116” value was “no strong activity”. The IC50 in data set [3] was above 10 µM. In data set [5] (48 h incubation), the “IC50 values BEL7402” value is recorded as “no strong activity”. For the same compound, the IC50 in data set [5] was above 10 µM. The “IC50 values HepG2” value in data set [6] (48 h incubation) is given as “no strong activity”. For the same compound, the IC50 in data set [6] was above 10 µM.
`COc1cc(-c2nnc(COC(=O)[C@]34CCC(C)(C)C[C@H]3C3=CC[C@@H]5[C@@]6(C)CC[C@H](O)[C@@](C)(C=O)[C@@H]6CC[C@@]5(C)[C@]3(C)C[C@H]4O)o2)cc(OC)c1OC` [Compound B5, (5-(3,4,5-trimethoxyphenyl)-1,3,4-oxadiazol-2-yl)methyl (4aR,5R,6aS,6bR,8aR,9S,10S,12aR,12bR,14bS)-9-formyl-5,10-dihydroxy-2,2,6a,6b,9,12a-hexamethyl-1,3,4,5,6,6a,6b,7,8,8a,9,10,11,12,12a,12b,13,14b-octadecahydropicene-4a (2H)-carboxylate] had a melting point of 136 to 138 °C. In data set [1], this compound had a half-inhibitory concentration (IC50) above 10 µM. This compound also came in with an IC50 in data set [2] above 10 µM. The IC50 in data set [3] was found to be 3.81 ± 1.23 µM. In data set [5], this compound displayed an IC50 of 7.36 ± 1.45 µM. The IC50 in data set [6] is 8.45 ± 2.15 µM.
